For 37 molecules, IC50 results are on record in US6093732A, “4-hydroxyquinoline-3-carboxamides and hydrazides as antiviral agents” (Pharmacia & Upjohn Company, priority 1998, dated 2000).

The structures appear in SMILES notation. A value given as a limit tells only on which side of the number the result lay.

By IC50 is commonly meant the concentration that inhibits the measured activity by half.

For this test, the target named is T1, HCMV polymerase (Human cytomegalovirus, UniProt P08546).
T1 construct: made in house; host or cells: recombinant baculovirus-infected SF-9 cells
T1 sequence (P08546 whole entry): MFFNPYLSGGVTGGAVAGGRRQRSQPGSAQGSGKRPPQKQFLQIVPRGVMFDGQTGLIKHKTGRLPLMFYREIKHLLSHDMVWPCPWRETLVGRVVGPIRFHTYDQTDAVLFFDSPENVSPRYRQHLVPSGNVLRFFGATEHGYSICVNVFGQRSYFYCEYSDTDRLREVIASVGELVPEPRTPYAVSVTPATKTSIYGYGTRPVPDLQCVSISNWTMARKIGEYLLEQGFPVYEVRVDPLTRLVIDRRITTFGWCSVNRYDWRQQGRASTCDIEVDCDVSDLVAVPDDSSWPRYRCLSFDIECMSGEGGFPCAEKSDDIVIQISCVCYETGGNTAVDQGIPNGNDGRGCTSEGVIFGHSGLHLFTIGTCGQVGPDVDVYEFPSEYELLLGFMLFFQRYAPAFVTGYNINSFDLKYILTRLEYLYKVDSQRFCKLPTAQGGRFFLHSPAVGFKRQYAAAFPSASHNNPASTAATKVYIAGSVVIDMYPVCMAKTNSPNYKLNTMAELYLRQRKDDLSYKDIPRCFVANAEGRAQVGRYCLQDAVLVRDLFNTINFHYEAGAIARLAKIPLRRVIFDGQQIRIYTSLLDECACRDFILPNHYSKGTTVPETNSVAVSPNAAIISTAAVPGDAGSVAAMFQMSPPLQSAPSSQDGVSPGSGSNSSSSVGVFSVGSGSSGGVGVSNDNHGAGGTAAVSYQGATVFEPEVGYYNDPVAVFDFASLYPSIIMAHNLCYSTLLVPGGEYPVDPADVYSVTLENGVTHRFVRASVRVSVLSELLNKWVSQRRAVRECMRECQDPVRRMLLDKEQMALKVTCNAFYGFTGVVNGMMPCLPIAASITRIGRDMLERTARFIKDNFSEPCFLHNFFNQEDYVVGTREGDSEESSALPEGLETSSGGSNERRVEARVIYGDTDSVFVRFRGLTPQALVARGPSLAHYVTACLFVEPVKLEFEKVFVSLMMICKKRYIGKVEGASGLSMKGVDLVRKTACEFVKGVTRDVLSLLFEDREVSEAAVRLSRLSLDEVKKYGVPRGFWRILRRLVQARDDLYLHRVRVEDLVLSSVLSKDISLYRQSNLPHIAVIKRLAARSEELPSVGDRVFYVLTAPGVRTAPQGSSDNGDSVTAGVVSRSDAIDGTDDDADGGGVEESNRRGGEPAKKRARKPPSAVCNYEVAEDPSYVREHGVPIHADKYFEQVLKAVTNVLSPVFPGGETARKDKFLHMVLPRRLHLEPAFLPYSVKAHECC
Put plainly: HCMV polymerase scintillation proximity assay (SPA), modified version. It is filed as biochemical. The settings on record: CMV polymerase; Table 1; modified assay with 4.5 mM DTT, compounds in 100% DMSO; read-out: Antiviral Selective Polymerase IC50 Values, CMV. In short, it runs like this: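 SPA measuring 3H-dTTP (90 nM) incorporation on 6 nM biotinylated poly(dA)-oligo(dT) by SF-9-expressed enzyme, pH 7.5 HEPES/KCl/MgCl2/BSA buffer with or without 2 mM CHAPS. Run at 25° C or 37° C, stopped with EDTA while linear (HCMV 30 min); IC50 from linear regression. Modified format adds 4.5 mM DTT, compounds diluted in 100% DMSO.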
(In general: SPA uses beads or plates that emit light when radiolabelled molecules are held near them.)
Take `Cc1cc(F)c2ncc(C(=O)NCc3ccc(Cl)cc3)c(O)c2c1` [Example 38, N-[(4-Chlorophenyl)methyl]-8-fluoro-4-hydroxy-6-methyl-3-quinolinecarboxamide]: the IC50 was found to be 3.2 µM.

For `CC(C)Oc1c(F)cc2c(O)c(C(=O)NCc3ccc(Cl)cc3)cnc2c1F` [Example 86, N-((4-Chlorophenyl)methyl)-6,8-difluoro-4-hydroxy-7-(1-methylethoxy)-3-quinolinecarboxamide], the half-inhibitory concentration (IC50) was 10.7 µM. To `CN(CCCc1cc(F)c2ncc(C(=O)NCc3ccc(Cl)cc3)c(O)c2c1)Cc1ccccc1` [Example 108, 6-{3-[Benzyl(methyl)amino]propyl}-N-(4-chlorobenzyl)-8-fluoro-4-hydroxy-3-quinolinecarboxamide] belongs 6.5 µM; to `CC(O)CCc1cc(F)c2ncc(C(=O)NCc3ccc(Cl)cc3)c(O)c2c1` (stereo not shown) [Example 132, N-(4-Chlorobenzyl)-8-fluoro-4-hydroxy-6-(3-hydroxybutyl)-3-quinolinecarboxamide], 0.64 µM; to `O=C(NCc1ccc(Cl)cc1)c1cnc2c(OC3CCOCC3)c(F)c(F)cc2c1O` [Example 78, N-((4-Chlorophenyl)methyl)-6,7-difluoro-4-hydroxy-8-(tetrahydro-2H-pyran-4-oxy)-3-quinolinecarboxamide], 0.71 µM. Consider `COc1ccc2ncc(C(=O)NCc3ccc(Cl)cc3)c(O)c2c1` [Example 23, N-[(4-Chlorophenyl)methyl]-4-hydroxy-6-methoxy-3-quinoline-carboxamide], for which the IC50 stood at 3.4 µM. The value for `O=C(NCc1ccc(Cl)cc1)c1cnc2c(F)cc(CCCCCO)cc2c1O` [Example 154, N-(4-Chlorobenzyl)-8-fluoro-4-hydroxy-6-(5-hydroxypentyl)-3-quinolinecarboxamide] was 3.4 µM. Turning to `Cc1ccc2ncc(C(=O)NCc3ccc(Cl)cc3)c(O)c2c1` [Example 22, N-[(4-Chlorophenyl)methyl]-4-hydroxy-6-methyl-3-quinoline-carboxamide], the IC50 came to 4 µM. On to `O=C(NCc1ccc(Cl)cc1)c1cnc2c(F)cc(S(=O)(=O)NCc3cccs3)cc2c1O` [Example 209, N-(4-chlorobenzyl)-8-fluoro-4-hydroxy-6-{[(2-thienylmethyl)amino]sulfonyl}-3-quinolinecarboxamide], for which the IC50 was found to be 8.6 µM.

Regarding `COCCOc1c(F)cc2c(O)c(C(=O)NCc3ccc(Cl)cc3)cnc2c1F` [Example 83, N-((4-Chlorophenyl)methyl)-6,8-difluoro-4-hydroxy-7-(2-(methoxy)ethoxy)-3-quinolinecarboxamide], the IC50 was found to be 4.3 µM. In the case of `O=C(NCc1ccc(Cl)cc1)c1cnc2c(F)cc(C#CCCCO)cc2c1O` [Example 107, N-(4-Chlorobenzyl)-8-fluoro-4-hydroxy-6-(5-hydroxy-1-pentynyl)-3-quinolinecarboxamide], the IC50 was 5.4 µM. To `O=C(NCc1ccc(Cl)cc1)c1cnc2ccc(Br)cc2c1O` [Example 57, 6-Bromo-N-((4-chlorophenyl)methyl)-4-hydroxy-3-quinoline-carboxamide] belongs 5.2 µM; to `O=C(NCc1ccc(Cl)cc1)c1cnc2c(F)cc(CCCOP(=O)(O)O)cc2c1O` [Example 268, 3-(3-{[(4-Chlorobenzyl)amino]carbonyl}-8-fluoro-4-hydroxy-6-quinolinyl)propyl dihydrogen phosphate], 9.5 µM; to `COc1c(F)cc2c(O)c(C(=O)NCc3ccc(Cl)cc3)cnc2c1OC` [Example 80, N-((4-Chlorophenyl)methyl)-7,8-dimethoxy-6-fluoro-4-hydroxy-3-quinolinecarboxamide], 2.4 µM. The value for `CCSCCNS(=O)(=O)c1cc(F)c2ncc(C(=O)NCc3ccc(Cl)cc3)c(O)c2c1` [Example 251, N-(4-chlorobenzyl)-6-({[2-(ethylsulfanyl)ethyl]amino}sulfonyl)-8-fluoro-4-hydroxy-3-quinolinecarboxamide] was 18.7 µM. The value for `Cc1cccc2ncc(C(=O)NCc3ccc(Cl)cc3)c(O)c12` [Example 62, N-((4-Chlorophenyl)methyl)-4-hydroxy-5-methyl-3-quinoline-carboxamide] was 4.6 µM. For the molecule `CC(C)(N)CNS(=O)(=O)c1cc(F)c2ncc(C(=O)NCc3ccc(Cl)cc3)c(O)c2c1` [Example 264, 6-{[(2-amino-2-methylpropyl)amino]sulfonyl}-N-(4-chlorobenzyl)-8-fluoro-4-hydroxy-3-quinolinecarboxamide], the IC50 came out at 90.2 µM. Turning to `O=C(NCc1ccc(Cl)cc1)c1cnc2c(F)cc(C#Cc3ccccn3)cc2c1O` [Example 92, N-(4-Chlorobenzyl)-8-fluoro-4-hydroxy-6-[2-(2-pyridinyl)ethynyl]-3-quinolinecarboxamide], the IC50 is 20.6 µM. As to `O=C(NNc1ccc(Cl)cc1)c1cnc2c(F)cccc2c1O` [Example 36, 8-Fluoro-4-hydroxy-3-quinolinecarboxylic acid 2-(4-chlorophenyl) hydrazide], the IC50 was determined as 7.8 µM. The value for `COc1ccc(S(=O)(=O)Nc2cc(F)c3ncc(C(=O)NCc4ccc(Cl)cc4)c(O)c3c2)cc1` [Example 187, N-(4-Chlorobenzyl)-8-fluoro-4-hydroxy-6-{[(4-methoxyphenyl)-sulfonyl]amino}-3-quinolinecarboxamide] was 17.7 µM. As for `O=C(NCc1ccc(Cl)cc1)c1cnc2c(F)cc(CCCO)cc2c1O` [Example 110, N-(4-Chlorobenzyl)-8-fluoro-4-hydroxy-6-(3-hydroxypropyl)-3-quinolinecarboxamide], the IC50 is 0.28 µM.

With `O=C(NCc1ccc(Cl)cc1)c1cnc2c(F)cc(C#CCF)cc2c1O` [Example 143, N-(4-Chlorobenzyl)-8-fluoro-6-(3-fluoro-1-propynyl)-4-hydroxy-3-quinolinecarboxamide], the half-maximal inhibitory concentration (IC50) was found to be 3 µM. The value for `Cc1ccc(CNS(=O)(=O)c2cc(F)c3ncc(C(=O)NCc4ccc(Cl)cc4)c(O)c3c2)cc1C` [Example 252, N-(4-chlorobenzyl)-6-{[(3,4-dimethylbenzyl)amino]sulfonyl}-8-fluoro-4-hydroxy-3-quinolinecarboxamide] was 18.9 µM. The value for `O=C(NNc1ccc(Cl)cc1)c1cnc2ccc(I)cc2c1O` [Example 91, 4-Hydroxy-6-iodo-3-quinolinecarboxylic acid 2-(4-chlorophenyl)hydrazide] was 3.8 µM; that for `O=CCCc1cc(F)c2ncc(C(=O)NCc3ccc(Cl)cc3)c(O)c2c1` [Example 139, N-(4-Chlorobenzyl)-8-fluoro-4-hydroxy-6-(3-oxopropyl)-3-quinolinecarboxamide] was 1.9 µM; that for `O=C(NCc1ccc(Cl)cc1)c1cnc2c(F)cc(/C=C\CO)cc2c1O` [Example 137, N-(4-Chlorobenzyl)-8-fluoro-4-hydroxy-6-[(Z)-3-hydroxy-1-propenyl]-3-quinolinecarboxamide] was 0.6 µM. As for `O=C(NCc1ccc(Cl)cc1)c1cnc2c(F)c(F)ccc2c1O` [Example 18, N-[(4-Chlorophenyl)methyl]-7,8-difluoro-4-hydroxy-3-quinoline-carboxamide], the IC50 was < 3.1 µM. The value for `O=C(NCc1ccc(Cl)cc1)c1cnc2c(O)cccc2c1O` [Example 45, N-[(4-Chlorophenyl)methyl]-4,8-dihydroxy-3-quinoline-carboxamide] was 4.6 µM. In the case of `Cc1ccccc1-c1cc(F)c2ncc(C(=O)NCc3ccc(Cl)cc3)c(O)c2c1` [Example 77, N-((4-Chlorophenyl)methyl)-8-fluoro-4-hydroxy-6-(2-methyl-phenyl)-3-quinolinecarboxamide], the IC50 worked out at 4 µM.

For the molecule `O=C(NCc1ccc(Cl)cc1)c1cnc2c(F)cc(S(=O)(=O)NCCc3c[nH]c4ccccc34)cc2c1O` [Example 193, N-(4-Chlorobenzyl)-8-fluoro-4-hydroxy-6-({[2-(1H-indol-3-yl)ethyl]-amino)sulfonyl)-3-quinolinecarboxamide], the IC50 is 2.7 µM. To `COCCNc1c(F)cc2c(O)c(C(=O)NCc3ccc(Cl)cc3)cnc2c1F` [Example 88, N-(4-Chlorobenzyl)-6,8-difluoro-4-hydroxy-7-[(2-methoxyethyl)amino]-3-quinolinecarboxamide] belongs 30.3 µM; to `O=C(NCc1ccc(Cl)cc1)c1cnc2cccc(O)c2c1O` [Example 42, N-[(4-Chlorophenyl)methyl]-4,5-dihydroxy-3-quinolinecarboxamide], 19.2 µM. In the case of `O=C(NCc1ccc(Cl)cc1)c1cnc2c(Cl)c(Cl)ccc2c1O` [Example 43, 7,8-Dichloro-N-[(4-chlorophenyl)methyl]-4-hydroxy-3-quinolinecarboxamide], the IC50 worked out at 1.3 µM.

In the case of `O=C(NCc1ccc(Cl)cc1)c1cnc2cc(C(F)(F)F)c(SCc3ccccc3)cc2c1O` [Example 72, N-[(4-Chlorophenyl)methyl]-4-hydroxy-6-[(phenylmethyl)thio]-7-(trifluoromethyl)-3-quinolinecarboxamide], the IC50 was 9.4 µM. Consider `O=C(NCc1ccc(Cl)cc1)c1cnc2c(F)cc(S(=O)(=O)NCCNc3ccc([N+](=O)[O-])cn3)cc2c1O` [Example 215, N-(4-chlorobenzyl)-8-fluoro-4-hydroxy-6-[({2-[(5-nitro-2-pyridinyl)amino]ethyl}amino)sulfonyl]-3-quinolinecarboxamide], for which the concentration for half-maximal inhibition (IC50) was determined as 8.6 µM. To `O=C(NCc1ccc(Cl)cc1)c1cnc2c(F)cc(CN3CCOCC3)cc2c1O` [Example 158, N-(4-Chlorobenzyl)-8-fluoro-4-hydroxy-6-(4-morpholinylmethyl)-3-quinolinecarboxamide] belongs < 0.78 µM. To `O=C(NCc1ccc(Cl)cc1)c1cnc2c(F)cc(S(=O)(=O)NCCCN3CCOCC3)cc2c1O` [Example 214, N-(4-chlorobenzyl)-8-fluoro-4-hydroxy-6-{[(3-morpholinopropyl)amino]sulfonyl}-3-quinolinecarboxamide] belongs 29.7 µM.
